Source: patent US9321764B2, “Dihydro-pyrrolopyridinone inhibitors” (AbbVie Inc., priority 2013, dated 2016)

How the values were obtained:
[1] = target: T1, BRD4 (BDI_K57-E168) (Homo sapiens, UniProt O60885); assay: TR-FRET bromodomain binding assay, first bromodomain of BRD4; conditions: His-tagged BD1, 100 nM Alexa647 probe; TR-FRET protocol A-E given per row
T1 construct: BD1: amino acids K57-E168; made in house
In short: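 His-tagged BRD4 BD1 (K57-E168), 8 nM, with 1 nM Eu-anti-His antibody and 100 nM Alexa647-labelled BET-inhibitor probe in pH 6.0 phosphate buffer, 2% DMSO. TR-FRET read after 1 h at room temperature. IC50 from 4-parameter fit, converted to Ki using probe Kd and concentration.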

[2] = target: T2, BRD4 (BDII_E352-M457) (Homo sapiens, UniProt O60885); assay: TR-FRET bromodomain binding assay, second bromodomain of BRD4; conditions: His-tagged BD2, 30 nM Alexa647 probe; TR-FRET protocol A-E given per row
T2 construct: proliferation; Protocol; made in house
In short: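 His-tagged BRD4 BD2 ([…]) competed against an Alexa647-labelled BET-inhibitor probe in TR-FRET. Buffer was 20 mM sodium phosphate pH 6.0, 50 mM NaCl, 1 mM EDTA, 0.01% Triton X-100, 1 mM DTT, with method D DMSO series of 2.5 mM–800 nM (stock range). IC50 from 4-parameter fit, Ki from probe Kd and concentration.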

[3] = test system: breast cancer cell line MX-1; assay: MX-1 cell line proliferation assay; assay type: cell-based; conditions: Homo sapiens, MX1, 72 h, MX-1 cells, 3-day proliferation assay, Cell Titer Glo; read-out: Cellular proliferation EC50
Method: The impact of compounds of the Examples on cancer cell proliferation was determined using the breast cancer cell line MX-1 (ATCC) in a 3-day proliferation assay and the data are reported in Table 1. MX-1 cells were maintained in RPMI 1640 medium (Sigma) supplemented with 10% FBS at 37° C. and an atmosphere of 5% CO2. For compound testing, MX-1 cells were plated in 96-well black bottom plates at a density of 5000 cells/well in 90 μL of culture media and incubated at 37° overnight to allow cell adhesion and spreading. Compound dilution series were prepared in DMSO via a 3-fold serial dilution from 3 mM to 0.1 μM. The DMSO dilution series were then diluted 1:100 in phosphate buffered saline, and 10 μL of the resulted solution were added to the appropriate wells of the MX-1 cell plate. The final compound concentrations in the wells were 3, 1, 0.3, 0.1, 0.03, 0.01, 0.003, 0.001, 0.0003 and 0.0001 μM.
Luminescence readings from the Cell Titer Glo assay were normalized to the DMSO treated cells and analyzed using the GraphPad Prism software with sigmoidal curve fitting to obtain EC50s. The minimum significant ratio (MSR) was determined to evaluate assay reproducibility (Eastwood et al., (2006) J Biomol Screen, 11: 253-261).

SMILES	Ki [1]	Ki [2]	EC50 [3]
Cn1cc(-c2cc(CS(=O)(=O)NC3CCCCC3)ccc2Oc2ccc(F)cc2F)c2cc[nH]c(=O)c21 [Example 102, N-cyclohexyl-1-[4-(2,4-difluorophenoxy)-3-(1-methyl-7-oxo-6,7-dihydro-1H-pyrrolo[2,3-c]pyridin-3-yl)phenyl]methanesulfonamide]	95 nM	81 nM	739 nM
Cn1cc(-c2cc(CNS(=O)(=O)CC(F)(F)F)ccc2Oc2ccc(F)cc2F)c2cc[nH]c(=O)c21 [Example 135, N-[4-(2,4-difluorophenoxy)-3-(1-methyl-7-oxo-6,7-dihydro-1H-pyrrolo[2,3-c]pyridin-3-yl)benzyl]-2,2,2-trifluoroethanesulfonamide]	27 nM	109 nM	388 nM
Cn1cc(-c2cc(CS(=O)(=O)N3CCCCC3)ccc2Oc2ccc(F)cc2F)c2cc[nH]c(=O)c21 [Example 103, 3-{2-(2,4-difluorophenoxy)-5-[(piperidin-1-ylsulfonyl)methyl]phenyl}-1-methyl-1,6-dihydro-7H-pyrrolo[2,3-c]pyridin-7-one]	8.4 nM	4.9 nM	89 nM
Cn1cc(-c2cc(NC(=O)c3cc(Cl)ccc3Cl)ccc2Oc2ccc(F)cc2F)c2cc[nH]c(=O)c21 [Example 148, 2,5-dichloro-N-[4-(2,4-difluorophenoxy)-3-(1-methyl-7-oxo-6,7-dihydro-1H-pyrrolo[2,3-c]pyridin-3-yl)phenyl]benzamide]	65.1 nM	150 nM	170 nM
CCS(=O)(=O)Nc1ccc(Oc2ccc(F)cc2F)c(-c2cn(C)c3c(=O)[nH]c(C4CCNCC4)cc23)c1 [Example 183, N-{4-(2,4-difluorophenoxy)-3-[1-methyl-7-oxo-5-(piperidin-4-yl)-6,7-dihydro-1H-pyrrolo[2,3-c]pyridin-3-yl]phenyl}ethanesulfonamide]	2.63 nM	13.4 nM	356 nM
CN(CC1CC1)c1ccc(S(C)(=O)=O)cc1-c1cn(C)c2c(=O)[nH]ccc12 [Example 45, 3-{2-[(cyclopropylmethyl)(methyl)amino]-5-(methylsulfonyl)phenyl}-1-methyl-1,6-dihydro-7H-pyrrolo[2,3-c]pyridin-7-one]	37 nM	70 nM	279 nM
Cn1cc(-c2cc(CS(C)(=O)=O)cc(C3CC3)c2Nc2ccc(F)cc2F)c2cc[nH]c(=O)c21 [Example 202, 3-{3-cyclopropyl-2-[(2,4-difluorophenyl)amino]-5-[(methylsulfonyl)methyl]phenyl}-1-methyl-1,6-dihydro-7H-pyrrolo[2,3-c]pyridin-7-one]	5.82 nM	16.3 nM	98.3 nM
CCS(=O)(=O)Nc1cnc(Oc2ccc(F)cc2F)c(-c2cn(C)c3c(=O)[nH]ccc23)c1 [Example 184, N-[6-(2,4-difluorophenoxy)-5-(1-methyl-7-oxo-6,7-dihydro-1H-pyrrolo[2,3-c]pyridin-3-yl)pyridin-3-yl]ethanesulfonamide]	5.31 nM	4.72 nM	309 nM
CCS(=O)(=O)Nc1ccc(Oc2ccc(F)cc2F)c(-c2cn(C)c3c(=O)[nH]c(C4CCN(S(=O)(=O)CC)CC4)cc23)c1 [Example 186, N-[4-(2,4-difluorophenoxy)-3-{5-[1-(ethylsulfonyl)piperidin-4-yl]-1-methyl-7-oxo-6,7-dihydro-1H-pyrrolo[2,3-c]pyridin-3-yl}phenyl]ethanesulfonamide]	0.38 nM	0.82 nM	13.4 nM
CCS(=O)(=O)Nc1ccc(Oc2ccc(F)cc2F)c(-c2cn(C)c3c(=O)[nH]c(C(=O)NC)cc23)c1 [Example 200, 3-{2-(2,4-difluorophenoxy)-5-[(ethylsulfonyl)amino]phenyl}-N,1-dimethyl-7-oxo-6,7-dihydro-1H-pyrrolo[2,3-c]pyridine-5-carboxamide]	3.24 nM	4.56 nM	43.6 nM
Cn1cc(-c2cc(CNS(=O)(=O)C3CCCC3)ccc2Oc2ccc(F)cc2F)c2cc[nH]c(=O)c21 [Example 137, N-[4-(2,4-difluorophenoxy)-3-(1-methyl-7-oxo-6,7-dihydro-1H-pyrrolo[2,3-c]pyridin-3-yl)benzyl]cyclopentanesulfonamide]	106 nM	374 nM	872 nM
Cn1cc(-c2cc(S(C)(=O)=O)ccc2OCC2(C)CC2)c2cc[nH]c(=O)c21 [Example 29, 1-methyl-3-{2-[(1-methylcyclopropyl)methoxy]-5-(methylsulfonyl)phenyl}-1,6-dihydro-7H-pyrrolo[2,3-c]pyridin-7-one]	12 nM	89 nM	191 nM
CCS(=O)(=O)c1ccc(Oc2c(C)nn(C)c2C)c(-c2cn(C)c3c(=O)[nH]ccc23)c1 [Example 90, 3-{5-(ethylsulfonyl)-2-[(1,3,5-trimethyl-1H-pyrazol-4-yl)oxy]phenyl}-1-methyl-1,6-dihydro-7H-pyrrolo[2,3-c]pyridin-7-one]	54 nM	39 nM	96 nM
CCS(=O)(=O)C(C)c1ccc(Oc2ccc(F)cc2F)c(-c2cn(C)c3c(=O)[nH]ccc23)c1 (stereo not drawn) [Example 55, 3-{2-(2,4-difluorophenoxy)-5-[1-(ethylsulfonyl)ethyl]phenyl}-1-methyl-1,6-dihydro-7H-pyrrolo[2,3-c]pyridin-7-one]	4.2 nM	9.9 nM	29 nM
Cn1cc(-c2cc(CN3CCNCC3)ccc2Oc2ccc(F)cc2F)c2cc[nH]c(=O)c21 [Example 105, 3-[2-(2,4-difluorophenoxy)-5-(piperazin-1-ylmethyl)phenyl]-1-methyl-1,6-dihydro-7H-pyrrolo[2,3-c]pyridin-7-one]	528 nM	329 nM	806 nM
CCS(=O)(=O)c1ccc(Oc2ccccc2C#N)c(-c2cn(C)c3c(=O)[nH]ccc23)c1 [Example 83, 2-[4-(ethylsulfonyl)-2-(1-methyl-7-oxo-6,7-dihydro-1H-pyrrolo[2,3-c]pyridin-3-yl)phenoxy]benzonitrile]	43 nM	46 nM	100 nM
CCS(=O)(=O)Nc1ccc(OC2CCOCC2)c(-c2cn(C)c3c(=O)[nH]ccc23)c1 [Example 7, N-[3-(1-methyl-7-oxo-6,7-dihydro-1H-pyrrolo[2,3-c]pyridin-3-yl)-4-(tetrahydro-2H-pyran-4-yloxy)phenyl]ethanesulfonamide]	4 nM	16 nM	93 nM
Cn1cc(-c2cc(S(C)(=O)=O)ccc2OCC2CC2(F)F)c2cc[nH]c(=O)c21 (stereo not drawn) [Example 42, 3-{2-[(2,2-difluorocyclopropyl)methoxy]-5-(methylsulfonyl)phenyl}-1-methyl-1,6-dihydro-7H-pyrrolo[2,3-c]pyridin-7-one]	13 nM	79 nM	221 nM
Cn1cc(-c2cc(NS(=O)(=O)Cc3cc(F)ccc3Cl)ccc2Oc2ccc(F)cc2F)c2cc[nH]c(=O)c21 [Example 181, 1-(2-chloro-5-fluorophenyl)-N-[4-(2,4-difluorophenoxy)-3-(1-methyl-7-oxo-6,7-dihydro-1H-pyrrolo[2,3-c]pyridin-3-yl)phenyl]methanesulfonamide]	65.8 nM	128 nM	> 1000 nM
Cn1cc(-c2cc(S(C)(=O)=O)ccc2NCC2CCCC2)c2cc[nH]c(=O)c21 [Example 68, 3-{2-[(cyclopentylmethyl)amino]-5-(methylsulfonyl)phenyl}-1-methyl-1,6-dihydro-7H-pyrrolo[2,3-c]pyridin-7-one]	103 nM	124 nM	38 nM
CCS(=O)(=O)c1ccc(Oc2ccc(Cl)cc2)c(-c2cn(C)c3c(=O)[nH]ccc23)c1 [Example 48, 3-[2-(4-chlorophenoxy)-5-(ethylsulfonyl)phenyl]-1-methyl-1,6-dihydro-7H-pyrrolo[2,3-c]pyridin-7-one]	14 nM	40 nM	114 nM
Cn1cc(-c2cc(S(C)(=O)=O)ccc2Oc2ccc(F)c(F)c2)c2cc[nH]c(=O)c21 [Example 19, 3-[2-(3,4-difluorophenoxy)-5-(methylsulfonyl)phenyl]-1-methyl-1,6-dihydro-7H-pyrrolo[2,3-c]pyridin-7-one]	16 nM	80 nM	176 nM
